Tests used:
Format in all cases: cell-based
E. coli BL21 = experiment: MIC against Gram-negative bacteria: E. coli BL21; conditions: 5×10^5 CFU/mL
Outline: (§1)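 Inocula prepared by growing LB cultures at 37° C to 0.5 McFarland, centrifuging at 4000×g, and resuspending in fresh medium. Final density 5×10^5 CFU/mL per well with two-fold dilutions of purified EGF domain protein; shaking incubation at 37° C.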

Serratia marcescens = experiment: MIC against Gram-negative bacteria: Serratia marcescens; conditions: 5×10^5 CFU/mL
Outline: as §1

Klebsiella pneumonia = experiment: MIC against Gram-negative bacteria: Klebsiella pneumonia; conditions: 5×10^5 CFU/mL
Outline: as §1

Citrobacter diversus = experiment: MIC against Gram-negative bacteria: Citrobacter diversus; conditions: 5×10^5 CFU/mL
Outline: as §1

E. coli DH5α = experiment: Antibacterial activity: MIC and growth curve against E. coli DH5α in 96-well plate; conditions: minimal inhibitory concentration against E. coli DH5α; 96-well plate, 5×10^5 CFU/mL, 37° C., judged after 8 h
Outline: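 Log-phase DH5α (OD600 about 0.5, 37° C, 185 rpm in LB) was pelleted, resuspended in fresh LB and seeded at 5×10^5 CFU/mL with recombinant protein at 50, 25 and 12.5 μg/mL (two-fold series), in triplicate. Plates were shaken at 175 rpm, 37° C, and OD600 was read every 30 min. MIC was the lowest concentration with no growth.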

Aeromonas hydrophila = experiment: MIC against Gram-negative bacteria: Aeromonas hydrophila; conditions: 5×10^5 CFU/mL
Outline: as §1

Proteus mirabilis = experiment: MIC against Gram-negative bacteria: Proteus mirabilis; conditions: 5×10^5 CFU/mL
Outline: as §1

Moraxella catarrhalis = experiment: MIC against Gram-negative bacteria: Moraxella catarrhalis; conditions: 5×10^5 CFU/mL
Outline: as §1

Proteus vulgaris = experiment: MIC against Gram-negative bacteria: Proteus vulgaris; conditions: 5×10^5 CFU/mL
Outline: as §1

Pseudomonas aeruginosa = experiment: MIC against Gram-negative bacteria: Pseudomonas aeruginosa; conditions: 5×10^5 CFU/mL
Outline: as §1

Enterobacter cloacae = experiment: MIC against Gram-negative bacteria: Enterobacter cloacae; conditions: 5×10^5 CFU/mL
Outline: as §1

[1] = 10 h cultivation at 37° C., two-fold serial dilution

PRT699 (DVDECSSGAPPCGPHGHCTNTEGSFRCSCAPGYRAPSGRPGPCA; listed as Homo sapiens)
MIC E. coli BL21 (E. coli BL21; 96-well plate, 37° C., 10 h): 25 µg/mL
MIC S. marcescens (Serratia marcescens; 96-well plate, 37° C., 10 h): 50 µg/mL
MIC K. pneumonia (Klebsiella pneumonia; 96-well plate, 37° C., 10 h): 25 µg/mL
MIC C. diversus (Citrobacter diversus; 96-well plate, 37° C., 10 h): 50 µg/mL
MIC (E. coli DH5α): 50 µg/mL
MIC A. hydrophila (Aeromonas hydrophila; 96-well plate, 37° C., 10 h): 12.5 µg/mL
MIC P. mirabilis (Proteus mirabilis; 96-well plate, 37° C., 10 h): 12.5 µg/mL
MIC M. catarrhalis (Moraxella catarrhalis; 96-well plate, 37° C., 10 h): 25 µg/mL
MIC P. vulgaris (Proteus vulgaris; 96-well plate, 37° C., 10 h): 25 µg/mL
MIC P. aeruginosa (Pseudomonas aeruginosa; 96-well plate, 37° C., 10 h): 12.5 µg/mL
MIC E. cloacae (Enterobacter cloacae; 96-well plate, 37° C., 10 h): 50 µg/mL

PRT625 (CNCSGRSEECTFDRELFRSTGHGGRCHHCRDHTAGPHCERCQENFYHWDPRMPCQP; listed as Homo sapiens)
MIC E. coli BL21 (E. coli BL21; 96-well plate, 37° C., 10 h): 25 µg/mL
MIC S. marcescens (Serratia marcescens; 96-well plate, 37° C., 10 h): 12.5 µg/mL
MIC K. pneumonia (Klebsiella pneumonia; 96-well plate, 37° C., 10 h): 25 µg/mL
MIC C. diversus (Citrobacter diversus; 96-well plate, 37° C., 10 h): 12.5 µg/mL
MIC (E. coli DH5α): 12.5 µg/mL
MIC A. hydrophila (Aeromonas hydrophila; 96-well plate, 37° C., 10 h): 25 µg/mL
MIC P. mirabilis (Proteus mirabilis; 96-well plate, 37° C., 10 h): 50 µg/mL
MIC M. catarrhalis (Moraxella catarrhalis; 96-well plate, 37° C., 10 h): 25 µg/mL
MIC P. vulgaris (Proteus vulgaris; 96-well plate, 37° C., 10 h): 25 µg/mL
MIC P. aeruginosa (Pseudomonas aeruginosa; 96-well plate, 37° C., 10 h): 12.5 µg/mL
MIC E. cloacae (Enterobacter cloacae; 96-well plate, 37° C., 10 h): 50 µg/mL

PRT92 (VSDLCATGDHDCEQVCISSPGSYTCACHEGFTLNSDGKTCN; listed as Homo sapiens)
MIC (μg/mL) E. coli BL21 (E. coli BL21; E. coli BL21, 96-well plate, 37° C., 10 h): 12.5 µg/mL
MIC (μg/mL) S. marcescens (Serratia marcescens; Serratia marcescens, 96-well plate, 37° C., 10 h): 12.5 µg/mL
MIC (μg/mL) K. pneumonia (Klebsiella pneumonia; Klebsiella pneumonia, 96-well plate, 37° C., 10 h): 12.5 µg/mL
MIC (μg/mL) C. diversus (Citrobacter diversus; Citrobacter diversus, 96-well plate, 37° C., 10 h): 12.5 µg/mL
MIC (E. coli DH5α): 50 µg/mL
MIC (μg/mL) A. hydrophila (Aeromonas hydrophila; Aeromonas hydrophila, 96-well plate, 37° C., 10 h): 25 µg/mL
MIC (μg/mL) P. mirabilis (Proteus mirabilis; Proteus mirabilis, 96-well plate, 37° C., 10 h): 50 µg/mL
MIC (μg/mL) M. catarrhalis (Moraxella catarrhalis; Moraxella catarrhalis, 96-well plate, 37° C., 10 h): 25 µg/mL
MIC (μg/mL) P. vulgaris (Proteus vulgaris; Proteus vulgaris, 96-well plate, 37° C., 10 h): 25 µg/mL
MIC (μg/mL) P. aeruginosa (Pseudomonas aeruginosa; Pseudomonas aeruginosa, 96-well plate, 37° C., 10 h): 50 µg/mL
MIC (μg/mL) E. cloacae (Enterobacter cloacae; Enterobacter cloacae, 96-well plate, 37° C., 10 h): 50 µg/mL

PRT486 (EANPCKFQACNEFSECLVNPWSGEAKCRCFPGYLSVEERPCQ; listed as Homo sapiens)
MIC against E. coli BL21 (E. coli BL21; 96-well plate, 37° C., 10 h): 50 µg/mL
MIC against S. marcescens (Serratia marcescens; 96-well plate, 37° C., 10 h): 25 µg/mL
MIC against K. pneumonia (Klebsiella pneumonia; 96-well plate, 37° C., 10 h): 50 µg/mL
MIC against C. diversus (Citrobacter diversus; 96-well plate, 37° C., 10 h): 12.5 µg/mL
MIC (E. coli DH5α): 12.5 µg/mL
MIC against A. hydrophila (Aeromonas hydrophila; 96-well plate, 37° C., 10 h): 50 µg/mL
MIC against P. mirabilis (Proteus mirabilis; 96-well plate, 37° C., 10 h): 12.5 µg/mL
MIC against M. catarrhalis (Moraxella catarrhalis; 96-well plate, 37° C., 10 h): 50 µg/mL
MIC against P. vulgaris (Proteus vulgaris; 96-well plate, 37° C., 10 h): 50 µg/mL
MIC against P. aeruginosa (Pseudomonas aeruginosa; 96-well plate, 37° C., 10 h): 12.5 µg/mL
MIC against E. cloacae (Enterobacter cloacae; 96-well plate, 37° C., 10 h): 12.5 µg/mL

PRT1123 (QLTGCQGHTCPLAATCIPIFESGVHSYVCHCPPGTHGPFCG; listed as Homo sapiens)
MIC E. coli BL21 (E. coli BL21; [1]): 50 µg/mL
MIC S. marcescens (Serratia marcescens; [1]): 12.5 µg/mL
MIC K. pneumonia (Klebsiella pneumonia; [1]): 12.5 µg/mL
MIC C. diversus (Citrobacter diversus; [1]): 12.5 µg/mL
MIC (E. coli DH5α): 25 µg/mL
MIC A. hydrophila (Aeromonas hydrophila; [1]): 50 µg/mL
MIC P. mirabilis (Proteus mirabilis; [1]): 50 µg/mL
MIC M. catarrhalis (Moraxella catarrhalis; [1]): 25 µg/mL
MIC P. vulgaris (Proteus vulgaris; [1]): 25 µg/mL
MIC P. aeruginosa (Pseudomonas aeruginosa; [1]): 25 µg/mL
MIC E. cloacae (Enterobacter cloacae; [1]): 25 µg/mL

PRT495 (CDCDLRGTSGDACNLEQGLCGCVEETGACPCKENVFGPQCNECREGTFALRADNPLGCSP; listed as Homo sapiens)
MIC against E. coli BL21 (E. coli BL21; 96-well plate, 37° C., 10 h): 50 µg/mL
MIC against S. marcescens (Serratia marcescens; 96-well plate, 37° C., 10 h): 25 µg/mL
MIC against K. pneumonia (Klebsiella pneumonia; 96-well plate, 37° C., 10 h): 12.5 µg/mL
MIC against C. diversus (Citrobacter diversus; 96-well plate, 37° C., 10 h): 25 µg/mL
MIC (E. coli DH5α): 25 µg/mL
MIC against A. hydrophila (Aeromonas hydrophila; 96-well plate, 37° C., 10 h): 50 µg/mL
MIC against P. mirabilis (Proteus mirabilis; 96-well plate, 37° C., 10 h): 25 µg/mL
MIC against M. catarrhalis (Moraxella catarrhalis; 96-well plate, 37° C., 10 h): 12.5 µg/mL
MIC against P. vulgaris (Proteus vulgaris; 96-well plate, 37° C., 10 h): 12.5 µg/mL
MIC against P. aeruginosa (Pseudomonas aeruginosa; 96-well plate, 37° C., 10 h): 25 µg/mL
MIC against E. cloacae (Enterobacter cloacae; 96-well plate, 37° C., 10 h): 25 µg/mL

From patent publication US9833497B2, “Human originated EGF domain proteins and use of the same” (CHENGDU SOURCEBIO LIMITED-LIABILITY COMPANY, priority 2013, dated 2017)
